Measured values: patent US9182397B2, “Immunoassay for detecting antibiotics” (DSM IP ASSETS B.V., priority 2011, dated 2015)

Tests used:
Set-up in all cases: key: 0: no intensity; 1: low intensity; 2: medium intensity; 3: high intensity
[1] = tested on: Penicillin binding protein purified from Bacillus stearothermophilus; test: Detection of Penicillin G after storage of the test device at 4° C. (Example 25)
Description: (§1) A nitrocellulose HF90 membrane (Millipore; length 25 mm) was used as a detection region. The membrane was glued to a polystyrene laminated card (thickness 0.254 mm) 8 mm from the proximal end of the card. Next, the detection zone and control zone were applied onto the nitrocellulose membrane. The detection zone was applied by dispensing 1 mg/ml of a 7ACA-spacer-BSA conjugate in 20 mM KPO4-buffer (pH 7.5) with a Biodot Dispense workstation XYZ 3050 with frontline at 0.2 μl/cm. The control zone was applied by dispensing 0.15 mg/ml of an anti-IgY antibody in 20 mM KPO4-buffer (pH 7.5) comprising 0.675 mg/ml BSA, 5% w/v saccharose and 20 mM NaCl with a Biodot Dispense workstation XYZ 3050 with frontline at 0.8 μl/cm. After drying of the zones, the nitrocellulose membrane was blocked by spraying a solution comprising 10 mM Tris buffer (pH 8) comprising 2% w/v BSA and 0.05% w/v Tween-20 using a Biodot Dispense workstation XYZ 3050 with airjet 3×. The solution was sprayed onto the membrane at a distance of 2 mm below the detection zone. Thereafter, the sample receiving region (VF2 membrane from Millipore; length 1 cm) was glued at the proximal end of the card overlapping 2 mm with the nitrocellulose membrane. The absorbing region (10038 membrane from Millipore; length 20 mm) was glued at the distal end of the card with an overlap of 2 mm on the nitrocellulose membrane. The obtained cards were dried at 37° C. in a dry atmosphere (0% relative humidity). The card was cut in strips of 5.2 mm width and kept at a dry atmosphere (0% relative humidity).
(§2) Streptavidin-coated gold particles were synthesized by reacting colloidal gold (diameter 40 nm; 1 OD/ml) with 10 μg/ml streptavidin. Next, the obtained solution was concentrated by tangential flow filtration, washed and stored in a Tris buffer (pH 8) including NaCN. Penicillin binding protein purified from Bacillus stearothermophilus was biotinylated (1:4) with D-biotinyl-epsilon-aminocaproic acid-N-hydroxysuccinimide ester. Next, the penicillin binding protein-gold conjugate was synthesized by reacting 1.5 μg biotinylated penicillin binding protein with 1 OD streptavidin-coated gold particles for 1 hour, followed by centrifugation at 10,000×g for 5 minutes and resuspension of the obtained pellet in 45 mM bicarbonate buffer comprising 0.1% w/v Triton X-100 (pH 9.6).
(§3) Thereafter, 140-200 mOD of the penicillin binding protein-gold conjugate and 5-20 mOD of the IgY-gold conjugate was solubilized in 100 μl buffer (80 mM Tris buffer comprising 0.01% w/v Triton-X-100, 0.4% w/v BSA, 5% v/v glycerin and 2% w/v saccharose (pH 8.5)) and 0.75 μl of the solution was dispensed per tube and dried for 12 hours at 40° C. The obtained tubes were sealed.
(§4) 150 μl of spiked milk was added per tube containing the dried conjugates. The concentration of penicillin G in the added milk varied from 0 to 4 ng/g (tube 1: 0 ng/g; […]; tube 2: 2 ng/g; tube 3: 3 ng/g; and tube 4: 4 ng/g). The obtained liquid composition was incubated for 2 minutes at 64° C. in an incubator. A test device was put into the tube and incubated for 3 minutes at 64° C. in the incubator. The result was read by eye.
The test devices were produced as described above in Examples 1 and 2 and stored at 4° C. At different time periods after production, the test device was used to measure penicillin G. The test was done essentially as described in Example 3.

[2] = tested on: Penicillin binding protein purified from Bacillus stearothermophilus; test: Detection of Penicillin G, test done at different temperatures (Example 29)
Description: as §1, §2, §3, §4
The test was done essentially as described in Example 3, with the proviso that the test was done at different temperatures (4° C., 20° C. or 31.5° C.).

[3] = tested on: Penicillin binding protein purified from Bacillus stearothermophilus; test: Detection of Penicillin G after storage of the test device at −20° C. or 30° C. (Example 26)
Description: as §1, §2, §3, §4
The test devices were produced as described above in Examples 1 and 2 and stored at different temperatures (−20° C. and 30° C.). At different time periods after production, the test device was used to detect penicillin G. The test was done essentially as described in Example 3.

[4] = tested on: Penicillin binding protein purified from Bacillus stearothermophilus; test: Detection of Penicillin G in different dairy matrices (Example 24)
Description: as §1, §2, §3, §4
The test was done essentially as described in Example 3. Instead of raw milk, different dairy matrices were tested. All liquid matrices were measured as such and all powders were first dispersed in water. For milk powder 20 g was dispersed in 250 g distilled water and for whey powder 7.1 g was dispersed in 100 g distilled water.

CC1(C)S[C@@H]2[C@H](NC(=O)Cc3ccccc3)C(=O)N2[C@H]1C(=O)O [Penicillin G]
Intensity of detection zone ([1]; Pen G 3 ppb, test device stored 0 weeks at 4° C.): 2 | Intensity of detection zone ([1]; Pen G 3 ppb, test device stored 4 weeks at 4° C.): 2 | Intensity of detection zone ([1]; Pen G 3 ppb, test device stored 7 weeks at 4° C.): 2 | Intensity of detection zone ([1]; Pen G 3 ppb, test device stored 15 weeks at 4° C.): 2 | Intensity of detection zone ([1]; Pen G 3 ppb, test device stored 18 weeks at 4° C.): 2 | Intensity of detection zone ([1]; Pen G 3 ppb, test device stored 26 weeks at 4° C.): 2 | Intensity of detection zone ([1]; Pen G 4 ppb, test device stored 0 weeks at 4° C.): 1 | Intensity of detection zone ([1]; Pen G 4 ppb, test device stored 4 weeks at 4° C.): 1 | Intensity of detection zone ([1]; Pen G 4 ppb, test device stored 7 weeks at 4° C.): 1 | Intensity of detection zone ([1]; Pen G 4 ppb, test device stored 15 weeks at 4° C.): 1 | Intensity of detection zone ([1]; Pen G 4 ppb, test device stored 18 weeks at 4° C.): 1 | Intensity of detection zone ([1]; Pen G 4 ppb, test device stored 26 weeks at 4° C.): 1 | Intensity of detection zone ([2]; Pen G 3 ppb, test done at temperature 4 ° C.): 2 | Intensity of detection zone ([2]; Pen G 3 ppb, test done at temperature 20 ° C.): 2 | Intensity of detection zone ([2]; Pen G 3 ppb, test done at temperature 31.5 ° C.): 2 | Intensity of detection zone ([2]; Pen G 4 ppb, test done at temperature 4 ° C.): 1 | Intensity of detection zone ([2]; Pen G 4 ppb, test done at temperature 20 ° C.): 1 | Intensity of detection zone ([2]; Pen G 4 ppb, test done at temperature 31.5 ° C.): 1 | Intensity of detection zone ([3]; Pen G 3 ppb, test device stored 0 days at 30° C.): 2 | Intensity of detection zone ([3]; Pen G 3 ppb, test device stored 0 days at −20° C.): 2 | Intensity of detection zone ([3]; Pen G 3 ppb, test device stored 3 days at 30° C.): 2 | Intensity of detection zone ([3]; Pen G 3 ppb, test device stored 3 days at −20° C.): 2 | Intensity of detection zone ([3]; Pen G 3 ppb, test device stored 7 days at 30° C.): 2 | Intensity of detection zone ([3]; Pen G 3 ppb, test device stored 7 days at −20° C.): 2 | Intensity of detection zone ([3]; Pen G 3 ppb, test device stored 28 days at 30° C.): 1 | Intensity of detection zone ([3]; Pen G 3 ppb, test device stored 28 days at −20° C.): 2 | Intensity of detection zone ([3]; Pen G 4 ppb, test device stored 0 days at 30° C.): 1 | Intensity of detection zone ([3]; Pen G 4 ppb, test device stored 0 days at −20° C.): 1 | Intensity of detection zone ([3]; Pen G 4 ppb, test device stored 3 days at 30° C.): 1 | Intensity of detection zone ([3]; Pen G 4 ppb, test device stored 3 days at −20° C.): 1 | Intensity of detection zone ([3]; Pen G 4 ppb, test device stored 7 days at 30° C.): 1 | Intensity of detection zone ([3]; Pen G 4 ppb, test device stored 7 days at −20° C.): 1 | Intensity of detection zone ([3]; Pen G 4 ppb, test device stored 28 days at 30° C.): 0 | Intensity of detection zone ([3]; Pen G 4 ppb, test device stored 28 days at −20° C.): 1 | Intensity of detection zone ([4]; Pen G 3 ppb, Cocoa): 2 | Intensity of detection zone ([4]; Pen G 3 ppb, Cream 10%): 2 | Intensity of detection zone ([4]; Pen G 3 ppb, Cream 40%): 2 | Intensity of detection zone ([4]; Pen G 3 ppb, Frozen raw buffalo milk (0 ppb gave 1)): 1 | Intensity of detection zone ([4]; Pen G 3 ppb, Frozen raw goat milk (0 ppb gave 1)): 1 | Intensity of detection zone ([4]; Pen G 3 ppb, Frozen raw milk): 2 | Intensity of detection zone ([4]; Pen G 3 ppb, Frozen raw sheep milk (0 ppb gave 1)): 1 | Intensity of detection zone ([4]; Pen G 3 ppb, Low fat UHT milk): 2 | Intensity of detection zone ([4]; Pen G 3 ppb, Low fat processed milk): 2 | Intensity of detection zone ([4]; Pen G 3 ppb, Milk powder (20 g dispersed in 250 g distilled water)): 2 | Intensity of detection zone ([4]; Pen G 3 ppb, Pasteurized milk): 2 | Intensity of detection zone ([4]; Pen G 3 ppb, UHT milk): 2 | Intensity of detection zone ([4]; Pen G 3 ppb, Whey pH 4.5 (0 ppb and control zone gave 0)): 0 | Intensity of detection zone ([4]; Pen G 3 ppb, Whey powder (7.1 g dispersed in 100 g distilled water)): 2 | Intensity of detection zone ([4]; Pen G 4 ppb, Cocoa): 1 | Intensity of detection zone ([4]; Pen G 4 ppb, Cream 10%): 1 | Intensity of detection zone ([4]; Pen G 4 ppb, Cream 40%): 2 | Intensity of detection zone ([4]; Pen G 4 ppb, Frozen raw buffalo milk (0 ppb gave 1)): 0 | Intensity of detection zone ([4]; Pen G 4 ppb, Frozen raw goat milk (0 ppb gave 1)): 0 | Intensity of detection zone ([4]; Pen G 4 ppb, Frozen raw milk): 1 | Intensity of detection zone ([4]; Pen G 4 ppb, Frozen raw sheep milk (0 ppb gave 1)): 0 | Intensity of detection zone ([4]; Pen G 4 ppb, Low fat UHT milk): 1 | Intensity of detection zone ([4]; Pen G 4 ppb, Low fat processed milk): 1 | Intensity of detection zone ([4]; Pen G 4 ppb, Milk powder (20 g dispersed in 250 g distilled water)): 1 | Intensity of detection zone ([4]; Pen G 4 ppb, Pasteurized milk): 1 | Intensity of detection zone ([4]; Pen G 4 ppb, UHT milk): 1 | Intensity of detection zone ([4]; Pen G 4 ppb, Whey pH 4.5 (0 ppb and control zone gave 0)): 0 | Intensity of detection zone ([4]; Pen G 4 ppb, Whey powder (7.1 g dispersed in 100 g distilled water)): 1
